From US8541397B2, “Alkyne and alkene derivatives as sphingosine 1-phosphate-1 receptor modulators” (Allergan, Inc., priority 2010, dated 2013)

Target: T1, human S1P1 receptor (Homo sapiens, UniProt P21453)
T1 construct: expressed in transfected cells; membranes used
Assay: GTP γ35S binding assay for S1P1 activity
Format: biochemical
Details: activity potency, S1P1 receptor from GTP γ35S binding; membranes; test compounds 0.08 to 5,000 nM
Description: Compounds were synthesized and tested for S1P1 activity using the GTP γ^35S binding assay. These compounds may be assessed for their ability to activate or block activation of the human S1P1 receptor in cells stably expressing the S1P1 receptor.
GTP γ^35S binding was measured in the medium containing (mM) HEPES 25, pH 7.4, MgCl2 10, NaCl 100, dithitothreitol 0.5, digitonin 0.003%, 0.2 nM GTP γ^35S, and 5 μg membrane protein in a volume of 150 μl. Test compounds were included in the concentration range from 0.08 to 5,000 nM unless indicated otherwise. Membranes were incubated with 100 μM 5′-adenylylimmidodiphosphate for 30 min, and subsequently with 10 μM GDP for 10 min on ice. Drug solutions and membrane were mixed, and then reactions were initiated by adding GTP γ^35S and continued for 30 min at 25° C. Reaction mixtures were filtered over Whatman GF/B filters under vacuum, and washed three times with 3 mL of ice-cold buffer (HEPES 25, pH7.4, MgCl2 10 and NaCl 100). Filters were dried and mixed with scintillant, and counted for ^35S activity using a β-counter. Agonist-induced GTP γ^35S binding was obtained by subtracting that in the absence of agonist. Binding data were analyzed using a non-linear regression method. In case of antagonist assay, the reaction mixture contained 10 nM S1P in the presence of test antagonist at concentrations ranging from 0.08 to 5000 nM.

T1 sequence (P21453 whole entry): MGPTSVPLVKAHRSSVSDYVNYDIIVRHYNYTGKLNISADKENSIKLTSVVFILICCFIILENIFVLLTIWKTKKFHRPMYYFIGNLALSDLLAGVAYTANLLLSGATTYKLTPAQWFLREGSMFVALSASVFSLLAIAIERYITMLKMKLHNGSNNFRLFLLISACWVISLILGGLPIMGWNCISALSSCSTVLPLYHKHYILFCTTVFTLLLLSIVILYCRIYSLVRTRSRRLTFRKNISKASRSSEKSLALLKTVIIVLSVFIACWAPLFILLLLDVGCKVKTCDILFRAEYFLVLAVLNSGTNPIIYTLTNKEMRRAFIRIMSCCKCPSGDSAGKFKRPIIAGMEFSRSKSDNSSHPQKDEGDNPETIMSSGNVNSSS

| EC50 [nM] | SMILES |
| --- | --- |
| 59 | Cc1cccc(C(C#Cc2ccc(CNCCCP(=O)(O)O)cc2-c2ccco2)Cc2ccc(C)c(C)c2)c1 (stereo not drawn) [Compound 17, [3-({4-[4-(3,4-dimethylphenyl)-3-(3-methylphenyl)but-1-yn-1-yl]-3-(2-furyl)benzyl}amino)propyl]phosphonic acid] |
| 31 | Cc1ccc(CC(C#Cc2ccc(CNCCCP(=O)(O)O)cc2Br)c2cc(F)cc(F)c2)cc1C (stereo not drawn) [Compound 16, [3-({3-bromo-4-[3-(3,5-difluorophenyl)-4-(3,4-dimethylphenyl)but-1-yn-1-yl]benzyl}amino)propyl]phosphonic acid] |
| 172 | Cc1ccc(CC(/C=C/c2ccc(CNCCCP(=O)(O)O)cc2)c2cccc(F)c2)cc1C (stereo not drawn) [Compound 23, [3-({4-[(1E)-4-(3,4-dimethylphenyl)-3-(3-fluorophenyl)but-1-en-1 yl]benzyl}amino)propyl]phosphonic acid] |
| 239 | Cc1ccc(CC(C#Cc2ccc(CNCCCP(=O)(O)O)cc2-c2ccco2)c2cccc(F)c2)cc1C (stereo not drawn) [Compound 14, [3-({4-[4-(3,4-dimethylphenyl)-3-(3-fluorophenyl)but-1-yn-1-yl]-3-(2-furyl)benzyl}amino)propyl]phosphonic acid] |
| 238 | Cc1ccc(CC(C#Cc2ccc(OCC(O)CO)c(Cl)c2)c2cccc(Cl)c2)cc1C (stereo not drawn) [Compound 19, 3-{2-chloro-4-[3-(3-chlorophenyl)-4-(3,4-dimethylphenyl)but-1-yn-1-yl]phenoxy}propane-1,2-diol] |
| 179 | Cc1cccc(C(C#Cc2ccc(CNCCCP(=O)(O)O)cc2-c2cccs2)Cc2ccc(C)c(C)c2)c1 (stereo not drawn) [Compound 15, [3-({4-[4-(3,4-dimethylphenyl)-3-(3-methylphenyl)but-1-yn-1-yl]-3-(2-thienyl)benzyl}amino)propyl]phosphonic acid] |
| 265 | Cc1ccc(CC(/C=C/c2ccc(CNCCC(=O)O)cc2)c2cccc(F)c2)cc1C (stereo not drawn) [Compound 22, 3-({4-[(1E)-4-(3,4-dimethylphenyl)-3-(3-fluorophenyl)but-1-en-1-yl]benzyl}amino)propanoic acid] |
| 600 | Cc1ccc(CC(C#Cc2ccc(OCC(O)CO)c(Cl)c2)c2cccc(F)c2)cc1C (stereo not drawn) [Compound 20, 3-{2-chloro-4-[4-(3,4-dimethylphenyl)-3-(3-fluorophenyl)but-1-yn-1-yl]phenoxy}propane-1,2-diol] |
| 401 | Cc1cccc(C(C#Cc2ccc(OCC(O)CO)c(Cl)c2)Cc2ccc(C)c(C)c2)c1 (stereo not drawn) [Compound 21, 3-{2-chloro-4-[4-(3,4-dimethylphenyl)-3-(3-methylphenyl)but-1-yn-1-yl]phenoxy}propane-1,2-diol] |

Further lines, the molecule ahead of its results:

| SMILES | EC50 [nM] |
| --- | --- |
| Cc1ccc(CC(C#Cc2ccc(CNCCC(=O)O)cc2)c2ccc(Cl)cc2)cc1C (stereo not drawn) [Compound 5, 3-({4-[3-(4-chlorophenyl)-4-(3,4-dimethylphenyl)but-1-yn-1-yl]benzyl}amino)propanoic acid] | 480 |
| Cc1cccc(C(C#Cc2ccc(CNCCCP(=O)(O)O)cc2)Cc2ccc(C)c(C)c2)c1 (stereo not drawn) [Compound 9, (3-{4-[4-(3,4-Dimethyl-phenyl)-3-m-tolyl-but-1-ynyl]-benzylamino}-propyl)-phosphonic acid] | 117 |
| COc1cccc(C(C#Cc2ccc(CNCCC(=O)O)cc2)Cc2ccc(C)c(C)c2)c1 (stereo not drawn) [Compound 1, 3-({4-[4-(3,4-dimethylphenyl)-3-(3-methoxyphenyl)but-1-yn-1-yl]benzyl}amino)propanoic acid] | 247 |
| Cc1ccc(CC(C#Cc2ccc(CNCCC(=O)O)cc2)c2cccc(Cl)c2)cc1C (stereo not drawn) [Compound 3, 3-({4-[3-(3-chlorophenyl)-4-(3,4-dimethylphenyl)but-1-yn-1-yl]benzyl}amino)propanoic acid] | 66 |
| Cc1cccc(C(C#Cc2ccc(CNCCCP(=O)(O)O)cc2C)Cc2ccc(C)c(C)c2)c1 (stereo not drawn) [Compound 11, [3-({4-[4-(3,4-dimethylphenyl)-3-(3-methylphenyl)but-1-yn-1-yl]-3 methylbenzyl}amino)propyl]phosphonic acid] | 56 |
| Cc1ccc(CC(C#Cc2ccc(CNCCCP(=O)(O)O)cc2C)c2cccc(F)c2)cc1C (stereo not drawn) [Compound 12, [3-({4-[4-(3,4-dimethylphenyl)-3-(3-fluorophenyl)but-1-yn-1-yl]-3-methylbenzyl}amino)propyl]phosphonic acid] | 1890 |
| Cc1ccc(CC(C#Cc2ccc(CNCCCP(=O)(O)O)cc2)c2cccc(Cl)c2)cc1C (stereo not drawn) [Compound 8, (3-{4-[3-(3-Chloro-phenyl)-4-(3,4-dimethyl-phenyl)-but-1-ynyl]-benzylamino}-propyl)-phosphonic acid] | 75.4 |
| Cc1cccc(C(C#Cc2ccc(CNCCC(=O)O)cc2)Cc2ccc(C)c(C)c2)c1 (stereo not drawn) [Compound 4, 3-({4-[4-(3,4-dimethylphenyl)-3-(3-methylphenyl)but-1-yn-1-yl]benzyl}amino)propanoic acid] | 502 |
| Cc1ccc(CC(C#Cc2ccc(CNCCCP(=O)(O)O)cc2C)c2cccc(Cl)c2)cc1C (stereo not drawn) [Compound 10, (3-{4-[3-(3-Chloro-phenyl)-4-(3,4-dimethyl-phenyl)-but-1-ynyl]-3-methyl-benzylamino}-propyl)-phosphonic acid] | 17.7 |
| Cc1ccc(CC(C#Cc2ccc(CNCCCP(=O)(O)O)cc2Br)c2cccc(F)c2)cc1C (stereo not drawn) [Compound 13, [3-({3-bromo-4-[4-(3,4-dimethylphenyl)-3-(3-fluorophenyl)but-1-yn-1-yl]benzyl}amino)propyl]phosphonic acid] | 6 |
| COc1cccc(C(C#Cc2ccc(CNCCCP(=O)(O)O)cc2)Cc2ccc(C)c(C)c2)c1 (stereo not drawn) [Compound 7, (3-{4-[4-(3,4-Dimethyl-phenyl)-3-(3-methoxy-phenyl)-but-1-ynyl]-benzylamino}-propyl)-phosphonic acid] | 160 |
| Cc1ccc(CC(C#Cc2ccc(CNCCC(=O)O)cc2C)c2cccc(Cl)c2)cc1C (stereo not drawn) [Compound 2, 3-{4-[3-(3-Chloro-phenyl)-4-(3,4-dimethyl-phenyl)-but-1-ynyl]-3-methyl-benzylamino}-propionic acid] | 262 |
